Several values for one entry are separate records, joined by “and”; a condition that tells them apart may be missing. Identical values can stand only once.
System: HEK293 cells
Test: Endogenous ceramide, HexCer and SM levels in cells treated 24 h, targeted LC-MS/MS
Format: cell-based
Set-up: Cer 18:1/24:0 content in HEK293 cells / Cer 18:1/24:1 content in HEK293 cells / HexCer 18:1/16:0 content in HEK293 cells / HexCer 18:1/18:0 content in HEK293 cells / HexCer 18:1/20:0 content in HEK293 cells / HexCer 18:1/22:0 content in HEK293 cells / Cer 18:1/16:0 content in HEK293 cells / Cer 18:1/18:0 content in HEK293 cells / Cer 18:1/20:0 content in HEK293 cells / Cer 18:1/22:0 content in HEK293 cells: unit not given here
Settings: replicates, raw data Suppl Fig 1
Experimental: Lipids were then extracted using MTBE/methanol/water as described above.
HEK293 cell culture experiment: Levels of each lipid in P053-treated HEK293 cells were normalised to the mean of the vehicle control group, and each concentration was compared to the control using ANOVA with Dunnett’s post-test. P values were adjusted for multiple comparisons in GraphPad PRISM.
Supplementary Figure 1. Ceramide, SM, and HexCer levels in HEK293 cells treated with
P053. Absolute lipid levels were determined by targeted LC-MS/MS, relative to external
standard curves. Results are mean ± SEM (n = 4) from one of two identical experiments.
Statistically significant results, based on two independent experiments, are as indicated in
Figure 2b-d. Raw data for these figures is provided in Supplementary Data File 1.

C[C@@](N)(CO)CCc1ccc(OCc2ccc(Cl)c(Cl)c2)cc1 [P053, (S)-2-amino-4-(4-(3,4-dichlorobenzyloxy)phenyl)-2-methylbutan-1-ol]
Cer 18:1/24:0 content in HEK293 cells (P053 10 nM): 78.2507 and 97.4893 and 100.975 and 120.086 | Cer 18:1/24:1 content in HEK293 cells (P053 10 nM): 41.2869 and 36.9476 and 41.283 and 38.2211 | HexCer 18:1/16:0 content in HEK293 cells (P053 10 nM): 30.7043 and 33.6425 and 33.4465 and 30.9255 | HexCer 18:1/18:0 content in HEK293 cells (P053 10 nM): 4.5494 and 4.09 and 4.473 and 4.32 | HexCer 18:1/20:0 content in HEK293 cells (P053 10 nM): 0.3088 and 0.3692 and 0.4154 and 0.4356 | HexCer 18:1/22:0 content in HEK293 cells (P053 10 nM): 36.8189 and 34.9551 and 38.6561 and 38.9837 | HexCer 18:1/24:0 content in HEK293 cells (P053 10 nM): 199.303 and 216.657 and 249.013 and 199.834 | HexCer 18:1/24:1 content in HEK293 cells (P053 10 nM): 70.2405 and 72.3688 and 73.5755 and 68.734 | SM 32:1 content in HEK293 cells (P053 10 nM): 35.2485 and 30.6751 and 30.1932 and 30.0675 | SM 34:1 content in HEK293 cells (P053 10 nM): 296.401 and 243.663 and 224.502 and 225.737 | SM 34:2 content in HEK293 cells (P053 10 nM): 47.2234 and 40.324 and 36.1571 and 38.6716 | SM 36:1 content in HEK293 cells (P053 10 nM): 29.6301 and 20.7933 and 22.4748 and 21.0053 | SM 36:2 content in HEK293 cells (P053 10 nM): 11.2341 and 9.942 and 8.241 and 8.207 | SM 38:1 content in HEK293 cells (P053 10 nM): 6.182 and 8.401 and 6.6333 and 8.787 | SM 40:1 content in HEK293 cells (P053 10 nM): 40.0944 and 41.0366 and 34.4775 and 35.2843 | SM 40:2 content in HEK293 cells (P053 10 nM): 10.3276 and 10.9643 and 10.3385 and 8.643 | SM 42:1 content in HEK293 cells (P053 10 nM): 68.7535 and 68.4711 and 69.6713 and 77.5442 | SM 42:2 content in HEK293 cells (P053 10 nM): 119.092 and 115.121 and 104.672 and 105.467 | Cer 18:1/16:0 content in HEK293 cells (P053 30 nM): 19.0547 and 20.8444 and 18.7423 and 20.5749 | Cer 18:1/18:0 content in HEK293 cells (P053 30 nM): 5.081 and 5.075 and 4.316 and 4.99 | Cer 18:1/20:0 content in HEK293 cells (P053 30 nM): 0.7183 and 0.7479 and 0.6521 and 0.6855 | Cer 18:1/22:0 content in HEK293 cells (P053 30 nM): 57.3121 and 66.2959 and 65.6669 and 64.5364 | Cer 18:1/24:0 content in HEK293 cells (P053 30 nM): 85.8777 and 134.225 and 118.415 and 97.9167 | Cer 18:1/24:1 content in HEK293 cells (P053 30 nM): 37.3744 and 44.4522 and 42.1609 and 41.0899 | HexCer 18:1/16:0 content in HEK293 cells (P053 30 nM): 29.7152 and 31.7982 and 33.8438 and 30.9723 | HexCer 18:1/18:0 content in HEK293 cells (P053 30 nM): 3.0394 and 3.951 and 4.099 and 3.127 | HexCer 18:1/20:0 content in HEK293 cells (P053 30 nM): 0.3329 and 0.4128 and 0.4628 and 0.5232 | HexCer 18:1/22:0 content in HEK293 cells (P053 30 nM): 32.4873 and 39.9972 and 37.7095 and 34.9843 | HexCer 18:1/24:0 content in HEK293 cells (P053 30 nM): 190.472 and 249.822 and 223.238 and 200.878 | HexCer 18:1/24:1 content in HEK293 cells (P053 30 nM): 66.6616 and 76.2502 and 69.0398 and 65.5993 | SM 32:1 content in HEK293 cells (P053 30 nM): 30.2036 and 32.0092 and 28.7617 and 34.5111 | SM 34:1 content in HEK293 cells (P053 30 nM): 248.003 and 262.537 and 249.572 and 281.872 | SM 34:2 content in HEK293 cells (P053 30 nM): 41.231 and 41.1196 and 40.1333 and 43.2759 | SM 36:1 content in HEK293 cells (P053 30 nM): 22.0304 and 22.5253 and 18.9401 and 24.6728 | SM 36:2 content in HEK293 cells (P053 30 nM): 9.089 and 8.502 and 8.127 and 10.0466 | SM 38:1 content in HEK293 cells (P053 30 nM): 14.9847 and 8.56 and 5.18 and 11.7454 | SM 40:1 content in HEK293 cells (P053 30 nM): 39.8982 and 44.3327 and 34.2754 and 42.2123 | SM 40:2 content in HEK293 cells (P053 30 nM): 9.856 and 9.764 and 9.362 and 10.5652 | SM 42:1 content in HEK293 cells (P053 30 nM): 69.7563 and 80.9547 and 78.46 and 71.8434 | SM 42:2 content in HEK293 cells (P053 30 nM): 104.731 and 121.981 and 114.303 and 118.688 | Cer 18:1/16:0 content in HEK293 cells (P053 100 nM): 22.9494 and 19.2357 and 22.5073 and 19.0496 | Cer 18:1/18:0 content in HEK293 cells (P053 100 nM): 2.972 and 3.68 and 3.21 and 2.092 | Cer 18:1/20:0 content in HEK293 cells (P053 100 nM): 0.613 and 0.738 and 0.687 and 0.5601 | Cer 18:1/22:0 content in HEK293 cells (P053 100 nM): 66.0373 and 65.445 and 75.6523 and 61.1907 | Cer 18:1/24:0 content in HEK293 cells (P053 100 nM): 95.8984 and 114.847 and 144.796 and 106.353 | Cer 18:1/24:1 content in HEK293 cells (P053 100 nM): 43.7952 and 41.4019 and 48.5214 and 41.0347 | HexCer 18:1/16:0 content in HEK293 cells (P053 100 nM): 28.7244 and 29.2314 and 27.3495 and 32.1782 | HexCer 18:1/18:0 content in HEK293 cells (P053 100 nM): 1.552 and 2.033 and 2.382 and 2.572 | HexCer 18:1/20:0 content in HEK293 cells (P053 100 nM): 0.3018 and 0.2953 and 0.2763 and 0.1537 | HexCer 18:1/22:0 content in HEK293 cells (P053 100 nM): 35.0199 and 40.376 and 33.9893 and 41.9484 | HexCer 18:1/24:0 content in HEK293 cells (P053 100 nM): 193.278 and 206.781 and 205.001 and 225.138 | HexCer 18:1/24:1 content in HEK293 cells (P053 100 nM): 66.6213 and 67.2246 and 64.4273 and 72.2662 | SM 32:1 content in HEK293 cells (P053 100 nM): 33.5311 and 33.1495 and 31.0137 and 33.9978 | SM 34:1 content in HEK293 cells (P053 100 nM): 239.205 and 244.554 and 241.828 and 261.421 | SM 34:2 content in HEK293 cells (P053 100 nM): 40.9604 and 43.1506 and 39.5005 and 44.6858 | SM 36:1 content in HEK293 cells (P053 100 nM): 15.6181 and 17.1499 and 17.2078 and 18.9256 | SM 36:2 content in HEK293 cells (P053 100 nM): 6.971 and 7.206 and 7.1332 and 7.405 | SM 38:1 content in HEK293 cells (P053 100 nM): 4.352 and 7.605 and 11.0645 and 10.3031 | SM 40:1 content in HEK293 cells (P053 100 nM): 39.6185 and 38.4983 and 41.6326 and 45.0957 | SM 40:2 content in HEK293 cells (P053 100 nM): 10.6428 and 11.1113 and 10.5382 and 10.6417 | SM 42:1 content in HEK293 cells (P053 100 nM): 70.6629 and 69.6062 and 82.0245 and 85.9318 | SM 42:2 content in HEK293 cells (P053 100 nM): 112.606 and 107.685 and 114.026 and 114.211 | Cer 18:1/16:0 content in HEK293 cells (P053 300 nM): 17.822 and 19.0766 and 17.3933 | Cer 18:1/18:0 content in HEK293 cells (P053 300 nM): 1.8912 and 1.699 and 1.376 | Cer 18:1/20:0 content in HEK293 cells (P053 300 nM): 0.7162 and 0.4601 and 0.6576 | Cer 18:1/22:0 content in HEK293 cells (P053 300 nM): 64.624 and 69.7847 and 70.6121 | Cer 18:1/24:0 content in HEK293 cells (P053 300 nM): 94.7176 and 106.124 and 124.497 | Cer 18:1/24:1 content in HEK293 cells (P053 300 nM): 42.6517 and 39.4375 and 41.6471 | HexCer 18:1/16:0 content in HEK293 cells (P053 300 nM): 26.9367 and 27.3197 and 28.9409 | HexCer 18:1/18:0 content in HEK293 cells (P053 300 nM): 1.661 and 1.355 and 1.491 | HexCer 18:1/20:0 content in HEK293 cells (P053 300 nM): 0.2792 and 0.518 and 0.2446 | HexCer 18:1/22:0 content in HEK293 cells (P053 300 nM): 43.5691 and 40.2015 and 45.0568 | HexCer 18:1/24:0 content in HEK293 cells (P053 300 nM): 220.79 and 197.985 and 254.871 | HexCer 18:1/24:1 content in HEK293 cells (P053 300 nM): 63.1626 and 68.7371 and 74.9033 | SM 32:1 content in HEK293 cells (P053 300 nM): 31.4532 and 33.3582 and 37.098 | SM 34:1 content in HEK293 cells (P053 300 nM): 241.436 and 241.197 and 248.392 | SM 34:2 content in HEK293 cells (P053 300 nM): 42.0268 and 43.5268 and 45.2968 | SM 36:1 content in HEK293 cells (P053 300 nM): 14.7086 and 14.6722 and 17.3205 | SM 36:2 content in HEK293 cells (P053 300 nM): 6.184 and 6.8179 and 6.541 | SM 38:1 content in HEK293 cells (P053 300 nM): 9.78 and 11.6533 and 8.0822 | SM 40:1 content in HEK293 cells (P053 300 nM): 43.4372 and 43.0067 and 50.439 | SM 40:2 content in HEK293 cells (P053 300 nM): 12.0217 and 11.0813 and 11.4772 | SM 42:1 content in HEK293 cells (P053 300 nM): 70.0557 and 70.3641 and 94.669 | SM 42:2 content in HEK293 cells (P053 300 nM): 117.582 and 110.303 and 130.267
